Columns and labels:
Assay type in all cases: in vivo
kochia (Kochia scoparia) [1] = assay: Test A postemergence, visual injury rating; conditions: 0 is no effect, 100 is complete control; for Kochia plant response rating: 0 to 100 scale, approximately 10 days
Procedure, shortened: (§1)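 Scoring: eye-based comparison with untreated controls, 0 for no effect through 100 for complete control, at about day 10. Treatments: directed soil spray preemergence; foliar spray postemergence on 2–10 cm plants at the one- to two-leaf stage. Medium: loam soil with sand.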

[2] = test system: galium (catchweed bedstraw, Galium aparine); assay: Test A postemergence, visual injury rating; conditions: 0 is no effect, 100 is complete control; for Galium plant response rating: 0 to 100 scale, approximately 10 days
Procedure, shortened: as §1

[3] = test system: blackgrass (Alopecurus myosuroides); assay: Test A postemergence, visual injury rating; conditions: 0 is no effect, 100 is complete control; for Blackgrass plant response rating: 0 to 100 scale, approximately 10 days
Procedure, shortened: as §1

[4] = test system: giant foxtail (Setaria faberii); assay: Test A postemergence, visual injury rating; conditions: 0 is no effect, 100 is complete control; for Foxtail, Giant plant response rating: 0 to 100 scale, approximately 10 days
Procedure, shortened: as §1

[5] = test system: barnyardgrass (Echinochloa crus-galli); assay: Test A postemergence, visual injury rating; conditions: 0 is no effect, 100 is complete control; for Barnyardgrass plant response rating: 0 to 100 scale, approximately 10 days
Procedure, shortened: as §1

corn (Zea mays) = assay: Test A postemergence, visual injury rating; conditions: 0 is no effect, 100 is complete control; for Corn plant response rating: 0 to 100 scale, approximately 10 days
Procedure, shortened: as §1

[6] = test system: ragweed (common ragweed, Ambrosia elatior); assay: Test A postemergence, visual injury rating; conditions: 0 is no effect, 100 is complete control; for Ragweed plant response rating: 0 to 100 scale, approximately 10 days
Procedure, shortened: as §1

[7] = test system: pigweed (Amaranthus retroflexus); assay: Test A postemergence, visual injury rating; conditions: 0 is no effect, 100 is complete control; for Pigweed plant response rating: 0 to 100 scale, approximately 10 days
Procedure, shortened: as §1

[8] = test system: wheat (Triticum aestivum); assay: Test A postemergence, visual injury rating; conditions: 0 is no effect, 100 is complete control; for Wheat plant response rating: 0 to 100 scale, approximately 10 days
Procedure, shortened: as §1

[9] = test system: Italian ryegrass (Lolium multiflorum); assay: Test A postemergence, visual injury rating; conditions: 0 is no effect, 100 is complete control; for Ryegrass, Italian plant response rating: 0 to 100 scale, approximately 10 days
Procedure, shortened: as §1

kochia (Kochia scoparia) [10] = assay: Test A preemergence, visual injury rating; conditions: for Kochia plant response rating: 0 to 100 scale (0 no effect, 100 complete control)
Procedure, shortened: as §1

[11] = test system: giant foxtail (Setaria faberii); assay: Test A preemergence, visual injury rating; conditions: for Foxtail, Giant plant response rating: 0 to 100 scale (0 no effect, 100 complete control)
Procedure, shortened: as §1

[12] = test system: barnyardgrass (Echinochloa crus-galli); assay: Test A preemergence, visual injury rating; conditions: for Barnyardgrass plant response rating: 0 to 100 scale (0 no effect, 100 complete control)
Procedure, shortened: as §1

[13] = test system: ragweed (common ragweed, Ambrosia elatior); assay: Test A preemergence, visual injury rating; conditions: for Ragweed plant response rating: 0 to 100 scale (0 no effect, 100 complete control)
Procedure, shortened: as §1

[14] = test system: pigweed (Amaranthus retroflexus); assay: Test A preemergence, visual injury rating; conditions: for Pigweed plant response rating: 0 to 100 scale (0 no effect, 100 complete control)
Procedure, shortened: as §1

[15] = test system: Italian ryegrass (Lolium multiflorum); assay: Test A preemergence, visual injury rating; conditions: for Ryegrass, Italian plant response rating: 0 to 100 scale (0 no effect, 100 complete control)
Procedure, shortened: as §1

[16] = test system: sedge, umbrella (small-flower umbrella sedge, Cyperus difformis); assay: Test B flooded paddy test, plant response rating; conditions: 250 g ai/ha; Flood; scale of 0 to 100 where 0 is no effect and 100 is complete control; 13 to 15 days
Procedure, shortened: (§2)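 Flooded 3 cm over soil; compound into paddy water; depth kept constant. Greenhouse 13–15 d.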

[17] = test system: ducksalad (Heteranthera limosa); assay: Test B flooded paddy test, plant response rating; conditions: 250 g ai/ha; Flood; scale of 0 to 100 where 0 is no effect and 100 is complete control; 13 to 15 days
Procedure, shortened: as §2

[18] = test system: barnyardgrass (Echinochloa crus-galli); assay: Test B flooded paddy test, plant response rating; conditions: 250 g ai/ha; Flood; scale of 0 to 100 where 0 is no effect and 100 is complete control; 13 to 15 days
Procedure, shortened: as §2

rice (Oryza sativa) = assay: Test B flooded paddy test, plant response rating; conditions: 250 g ai/ha; Flood; scale of 0 to 100 where 0 is no effect and 100 is complete control; 13 to 15 days
Procedure, shortened: as §2

[19] = 31 g ai/ha, 0 to 100 scale, 0 no effect, 100 complete control

For `N#Cc1cccc(Oc2ncc(Cl)cn2)c1COCCCC(F)(F)F` [Compound 81], the “Kochia plant response rating” value (kochia (Kochia scoparia) [1]; 31 g ai/ha) was 30, the “Kochia plant response rating” value (kochia (Kochia scoparia) [1]; 125 g ai/ha) was 50 and the “Galium plant response rating” value ([2]; 31 g ai/ha) was 30. The “Galium plant response rating (0 to 100 scale)” value ([2]; 125 g ai/ha) was 80, the “Blackgrass plant response rating” value ([3]; 31 g ai/ha) was 10 and the “Blackgrass plant response rating (0 to 100 scale)” value ([3]; 125 g ai/ha) was 40. For the same compound, the “Foxtail, Giant plant response rating” value ([4]; 31 g ai/ha) was 20, the “Foxtail, Giant plant response rating (0 to 100 scale)” value ([4]; 125 g ai/ha) was 70 and the “Barnyardgrass plant response rating” value ([5]; 31 g ai/ha) was 10. For the same compound, the “Barnyardgrass plant response rating (0 to 100 scale)” value ([5]; 125 g ai/ha) was 50, the “Corn plant response rating” value (corn (Zea mays); 31 g ai/ha) was 10 and the “Corn plant response rating (0 to 100 scale)” value (corn (Zea mays); 125 g ai/ha) was 40. For the same compound, the “Ragweed plant response rating” value ([6]; 31 g ai/ha) was 0, the “Ragweed plant response rating” value ([6]; 125 g ai/ha) was 10 and the “Pigweed plant response rating” value ([7]; 31 g ai/ha) was 50. The “Pigweed plant response rating” value ([7]; 125 g ai/ha) was 100, the “Wheat plant response rating” value ([8]; 31 g ai/ha) was 0 and the “Wheat plant response rating” value ([8]; 125 g ai/ha) was 0. For the same compound, the “Ryegrass, Italian plant response rating” value ([9]; 31 g ai/ha) was 0, the “Ryegrass, Italian plant response rating” value ([9]; 125 g ai/ha) was 10 and the “Plant response rating, Kochia” value (kochia (Kochia scoparia) [10]; [19]) was 0. The “Kochia plant response rating” value (kochia (Kochia scoparia) [10]; 125 g ai/ha) was 90, the “Plant response rating, Foxtail, Giant” value [11, 19] was 30 and the “Foxtail, Giant plant response rating” value ([11]; 125 g ai/ha) was 100. For the same compound, the “Plant response rating, Barnyardgrass” value [12, 19] was 10, the “Barnyardgrass plant response rating” value ([12]; 125 g ai/ha) was 90 and the “Plant response rating, Ragweed” value [13, 19] was 0. For the same compound, the “Ragweed plant response rating” value ([13]; 125 g ai/ha) was 0, the “Plant response rating, Pigweed” value [14, 19] was 100 and the “Pigweed plant response rating” value ([14]; 125 g ai/ha) was 100. The “Plant response rating, Ryegrass, Italian” value [15, 19] was 0, the “Ryegrass, Italian plant response rating” value ([15]; 125 g ai/ha) was 20 and the “Plant response rating, Sedge, Umbrella” value [16] was 100. For the same compound, the “Plant response rating, Ducksalad” value [17] was 100, the “Plant response rating, Barnyardgrass” value [18] was 45 and the “Plant response rating, Rice” value (rice (Oryza sativa)) was 0.

With `CCSC(=O)c1c(Br)cccc1Oc1ncc(Cl)cn1` [Compound 83] the “Kochia plant response rating” value (kochia (Kochia scoparia) [1]; 125 g ai/ha) was 30, the “Kochia plant response rating (0 to 100 scale)” value (kochia (Kochia scoparia) [1]; 500 g ai/ha) was 90 and the “Galium plant response rating” value ([2]; 125 g ai/ha) was 30. For the same compound, the “Galium plant response rating (0 to 100 scale)” value ([2]; 500 g ai/ha) was 20, the “Blackgrass plant response rating” value ([3]; 125 g ai/ha) was 0 and the “Blackgrass plant response rating (0 to 100 scale)” value ([3]; 500 g ai/ha) was 40. The “Foxtail, Giant plant response rating” value ([4]; 125 g ai/ha) was 0, the “Foxtail, Giant plant response rating (0 to 100 scale)” value ([4]; 500 g ai/ha) was 80 and the “Barnyardgrass plant response rating” value ([5]; 125 g ai/ha) was 0. For the same compound, the “Barnyardgrass plant response rating (0 to 100 scale)” value ([5]; 500 g ai/ha) was 90, the “Corn plant response rating” value (corn (Zea mays); 125 g ai/ha) was 20 and the “Corn plant response rating (0 to 100 scale)” value (corn (Zea mays); 500 g ai/ha) was 30. The “Ragweed plant response rating” value ([6]; 125 g ai/ha) was 0, the “Ragweed plant response rating (0 to 100 scale)” value ([6]; 500 g ai/ha) was 0 and the “Pigweed plant response rating” value ([7]; 125 g ai/ha) was 30. The “Pigweed plant response rating (0 to 100 scale)” value ([7]; 500 g ai/ha) was 70, the “Wheat plant response rating” value ([8]; 125 g ai/ha) was 0 and the “Wheat plant response rating (0 to 100 scale)” value ([8]; 500 g ai/ha) was 0. The “Ryegrass, Italian plant response rating” value ([9]; 125 g ai/ha) was 0, the “Ryegrass, Italian plant response rating (0 to 100 scale)” value ([9]; 500 g ai/ha) was 0 and the “Kochia plant response rating” value (kochia (Kochia scoparia) [10]; 125 g ai/ha) was 0. The “Kochia plant response rating” value (kochia (Kochia scoparia) [10]; 500 g ai/ha) was 0, the “Foxtail, Giant plant response rating” value ([11]; 125 g ai/ha) was 90 and the “Foxtail, Giant plant response rating” value ([11]; 500 g ai/ha) was 100. The “Barnyardgrass plant response rating” value ([12]; 125 g ai/ha) was 30, the “Barnyardgrass plant response rating” value ([12]; 500 g ai/ha) was 90 and the “Ragweed plant response rating” value ([13]; 125 g ai/ha) was 0. The “Ragweed plant response rating” value ([13]; 500 g ai/ha) was 0, the “Pigweed plant response rating” value ([14]; 125 g ai/ha) was 30 and the “Pigweed plant response rating” value ([14]; 500 g ai/ha) was 90. For the same compound, the “Ryegrass, Italian plant response rating” value ([15]; 125 g ai/ha) was 0, the “Ryegrass, Italian plant response rating” value ([15]; 500 g ai/ha) was 0 and the “Plant response rating, Sedge, Umbrella” value [16] was 80. For the same compound, the “Plant response rating, Ducksalad” value [17] was 80, the “Plant response rating, Barnyardgrass” value [18] was 0 and the “Plant response rating, Rice” value (rice (Oryza sativa)) was 0.

— US11053204B2, “Pyrimidinyloxy benzene derivatives as herbicides” (FMC Corporation, priority 2015, dated 2021)
